In patent US9458095B2, “Oligo-benzamide compounds and their use in treating cancers” (The Board of Regents of the University of Texas System, priority 2011, dated 2016):

Biological target: T1, AR567 (Homo sapiens, UniProt P10275)
T1 construct: expressed in transfected cells; host or cells: PC-3 cells
T1 sequence (P10275 with tags, fused parts or gaps limits assumed): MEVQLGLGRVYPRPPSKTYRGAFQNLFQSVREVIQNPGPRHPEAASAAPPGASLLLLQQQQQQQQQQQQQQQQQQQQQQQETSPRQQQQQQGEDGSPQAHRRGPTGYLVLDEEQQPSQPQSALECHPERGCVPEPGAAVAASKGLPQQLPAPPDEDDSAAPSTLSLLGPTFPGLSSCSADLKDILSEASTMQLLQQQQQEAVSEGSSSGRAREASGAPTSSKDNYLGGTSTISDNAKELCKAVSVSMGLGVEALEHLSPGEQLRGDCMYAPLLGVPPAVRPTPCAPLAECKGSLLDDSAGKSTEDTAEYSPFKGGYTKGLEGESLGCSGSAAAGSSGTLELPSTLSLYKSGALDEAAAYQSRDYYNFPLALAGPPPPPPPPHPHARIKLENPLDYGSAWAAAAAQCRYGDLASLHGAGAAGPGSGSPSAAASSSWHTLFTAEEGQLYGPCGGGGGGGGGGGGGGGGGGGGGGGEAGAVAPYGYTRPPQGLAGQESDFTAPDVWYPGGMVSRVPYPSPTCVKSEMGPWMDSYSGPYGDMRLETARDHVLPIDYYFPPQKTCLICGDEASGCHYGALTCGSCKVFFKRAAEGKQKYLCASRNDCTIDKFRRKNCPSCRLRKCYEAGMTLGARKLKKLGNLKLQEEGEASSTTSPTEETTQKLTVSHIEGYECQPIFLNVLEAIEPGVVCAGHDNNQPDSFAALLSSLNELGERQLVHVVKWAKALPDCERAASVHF
Assay: ARE-luciferase reporter in PC-3 cells expressing AR567
Type: cell-based
Settings: 100 nM peptidomimetic, 48 h
Description: FIGS. 3A-B. Effect of T6 on basal transcription driven by splice variants. PC-3 cells were transiently transfected with ARE-luciferase along with plasmids expressing ARv7 (FIG. 3A) or AR567 (FIG. 3B). Cells were maintained for 48 h either without (EtOH) or with (1 nM DHT) and in the presence of 100 nM of peptidomimetic or volume equivalent of vehicle (DMSO) control. Luciferase assay results are shown. Data is normalized to the basal level of expression with AR wt in PC3 cells.

transcription driven by AR567 splice variant: decreases
Structure (SMILES): CC(C)COc1cc(C(N)=O)ccc1NC(=O)c1ccc(NC(=O)c2ccc([N+](=O)[O-])c(OCCc3ccc4ccccc4c3)c2)c(OCC(C)C)c1 [T6]
